How the values were obtained:
Assay in all cases: Bliss excess, mean over the matrix (fraction); higher = more synergy
[1] = tested on: COR-L23 (Non-Small Cell Lung Carcinoma)
Summary of the method: (§1)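 Bliss excess equals the observed combination effect minus the expected value EA + EB − EA·EB, where EA and EB are the effects of each agent alone. Combination Emax is the second-highest inhibition within the matrix. Inhibition was scaled from CellTiter-Glo 2.0 luminescence, with 0 set by vehicle wells and 1 by blank wells, after 72 hours of two-drug dosing of cells plated in 1536-well plates.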

[2] = tested on: LU-99A (Non-Small Cell Lung Carcinoma)
Summary of the method: as §1

NCI-H2595 (Mesothelioma) = tested on: NCI-H2595 (Mesothelioma)
Summary of the method: as §1

[3] = tested on: IHH-4 (Thyroid Gland Carcinoma)
Summary of the method: as §1

[4] = tested on: CTV-1 (T-Lymphoblastic Leukemia)
Summary of the method: as §1

DSH1 (Bladder Carcinoma) = tested on: DSH1 (Bladder Carcinoma)
Summary of the method: as §1

[5] = tested on: SW756 (Cervical Carcinoma)
Summary of the method: as §1

[6] = tested on: HT-29 (Colorectal Carcinoma)
Summary of the method: as §1

[7] = tested on: SUIT-2 (Pancreatic Carcinoma)
Summary of the method: as §1

SK-N-FI (Neuroblastoma) = tested on: SK-N-FI (Neuroblastoma)
Summary of the method: as §1

[8] = tested on: U-266 (Plasma Cell Myeloma)
Summary of the method: as §1

[9] = tested on: SW1088 (Low Grade Glioma)
Summary of the method: as §1

[10] = tested on: DOV13 (Ovarian Carcinoma)
Summary of the method: as §1

RH-1 (Ewing's Sarcoma) = tested on: RH-1 (Ewing's Sarcoma)
Summary of the method: as §1

[11] = tested on: TE-5 (Esophageal Squamous Cell Carcinoma)
Summary of the method: as §1

[12] = tested on: HCC2157 (Breast Carcinoma)
Summary of the method: as §1

[13] = tested on: LS-513 (Colorectal Carcinoma)
Summary of the method: as §1

[14] = tested on: DMS-273 (Small Cell Lung Carcinoma)
Summary of the method: as §1

[15] = tested on: NCI-H1299 (Non-Small Cell Lung Carcinoma)
Summary of the method: as §1

[16] = tested on: NCI-H1781 (Lung Adenocarcinoma)
Summary of the method: as §1

| SMILES | Bliss excess [1] | Bliss excess [2] | Bliss excess (NCI-H2595 (Mesothelioma)) | Bliss excess [3] | Bliss excess [4] | Bliss excess (DSH1 (Bladder Carcinoma)) | Bliss excess [5] | Bliss excess [6] | Bliss excess [7] | Bliss excess (SK-N-FI (Neuroblastoma)) | Bliss excess [8] | Bliss excess [9] | Bliss excess [10] | Bliss excess (RH-1 (Ewing's Sarcoma)) | Bliss excess [11] | Bliss excess [12] | Bliss excess [13] | Bliss excess [14] | Bliss excess [15] | Bliss excess [16] |
| --- | --- | --- | --- | --- | --- | --- | --- | --- | --- | --- | --- | --- | --- | --- | --- | --- | --- | --- | --- | --- |
| CC1(C)CCC(CN2CCN(c3ccc(C(=O)NS(=O)(=O)c4ccc(NCC5CCOCC5)c([N+](=O)[O-])c4)c(Oc4cnc5[nH]ccc5c4)c3)CC2)=C(c2ccc(Cl)cc2)C1 [Venetoclax] + C=CCn1c(=O)c2cnc(Nc3ccc(N4CCN(C)CC4)cc3)nc2n1-c1cccc(C(C)(C)O)n1 [AZD1775] (first compound max 1 µM, partner max 1 µM) | -0.0609 | -0.0533 | -0.0316 | -0.0654 | -0.0327 | -0.0476 | -0.0401 | 0.008 | -0.0295 | -0.0076 | 0.104 | -0.003 | 0.131 | -0.0123 | -0.0412 | -0.0554 | -0.0581 | -0.0711 | 0.0038 | -0.0767 |
| COc1cccc(OCCCN)c1-c1cc(Nc2cnc(C#N)cn2)n[nH]1 [Prexasertib] + CCc1c2c(nc3ccc(O)cc13)-c1cc3c(c(=O)n1C2)COC(=O)[C@]3(O)CC [SN-38] (first compound max 1 µM, 7x7, partner max 0.3 µM) | 0.0388 | -0.0593 | 0.0211 | -0.0653 | -0.0461 | 0.0128 | -0.0542 | -0.0022 | -0.0582 | 0.0093 | -0.0412 | 0.0128 | -0.0444 | -0.0177 | -0.0476 | 0.0649 | -0.0691 | 0.0356 | -0.0161 | -0.0105 |
| Cc1c2c(nn1C)CSCc1cc(n(C)n1)CSc1cc(c3ccccc3c1)OCCCc1c(C(=O)O)n(C)c3c-2c(Cl)ccc13 [AZD5991] + C=CCn1c(=O)c2cnc(Nc3ccc(N4CCN(C)CC4)cc3)nc2n1-c1cccc(C(C)(C)O)n1 [AZD1775] (first compound max 1 µM, partner max 1 µM) | -0.0079 | 0.017 | -0.0127 | 0.02 | 0.0316 | -0.0115 | -0.013 | -0.0045 | 0.0014 | -0.0478 | -0.0008 | -0.0307 | -0.038 | -0.0575 | 0.0264 | -0.0438 | -0.0115 | -0.0476 | -0.0048 | -0.054 |
| Cc1cc2ncnn2cc1Nc1ncc2c(n1)n(C1CCOCC1)c(=O)n2C [AZD7648] + O=C(c1cc(Cc2n[nH]c(=O)c3ccccc23)ccc1F)N1CCN(C(=O)C2CC2)CC1 [Olaparib] (first compound max 10 µM, 7x7, partner max 10 µM) | 0.0328 | -0.0556 | -0.0258 | -0.0313 | 0.0056 | 0.0328 | -0.0174 | -0.0265 | 0.0151 | -0.0292 | -0.0247 | -0.067 | -0.0556 | -0.0115 | -0.0431 | 0.0073 | -0.0387 | 0.0268 | -0.03 | -0.0204 |
| NC1(C(=O)N[C@@H](CCO)c2ccc(Cl)cc2)CCN(c2ncnc3[nH]ccc23)CC1 [Capivasertib] + Cn1cnc2c(F)c(Nc3ccc(Br)cc3Cl)c(C(=O)NOCCO)cc21 [Selumetinib] (first compound max 10 µM, 7x7, partner max 10 µM) | 0.0071 | -0.0222 | -0.0454 | -0.0165 | 0.106 | 0.121 | -0.0177 | -0.0119 | -0.0181 | -0.0313 | 0.0745 | 0.0342 | -0.0314 | 0.0148 | 0.0457 | 0.017 | 0.0031 | -0.003 | 0.0153 | 0.105 |
| C=CCn1c(=O)c2cnc(Nc3ccc(N4CCN(C)CC4)cc3)nc2n1-c1cccc(C(C)(C)O)n1 [AZD1775] + C1CN(CCC1(C(=O)N[C@@H](CCO)C2=CC=C(C=C2)Cl)N)C3=NC=NC4=C3C=CN4 [Capivasertib] (first compound max 3 µM, partner max 3 µM) | 0.0185 | -0.0106 | -0.0787 | -0.005 | 0.0399 | 0.0495 | -0.0075 | -0.0357 | -0.017 | -0.0442 | -0.0704 | -0.0707 | 0.0339 | -0.0509 | 0.0129 | -0.0183 | -0.0514 | -0.0053 | -0.0756 | -0.096 |
| Cc1cc2ncnn2cc1Nc1ncc2c(n1)n(C1CCOCC1)c(=O)n2C [AZD7648] + C[C@@H]1COCCN1C2=NC(=NC(=C2)C3(CC3)[S@](=N)(=O)C)C4=C5C=CNC5=NC=C4 [AZD6738] (first compound max 10 µM, 7x7, partner max 10 µM) | -0.0121 | 0.0077 | -0.0059 | 0.0366 | -0.0024 | -0.0234 | 0.0048 | 0.0118 | -0.0306 | -0.005 | -0.0168 | 0.0289 | -0.0039 | -0.0016 | -0.0093 | -0.0528 | 0.0641 | 0.0094 | 0.0116 | 0.103 |
| CC(=O)c1c(C)c2cnc(Nc3ccc(N4CCNCC4)cn3)nc2n(C2CCCC2)c1=O [Palbociclib] + CC1(C)CCC(CN2CCN(c3ccc(C(=O)NS(=O)(=O)c4ccc(NCC5CCOCC5)c([N+](=O)[O-])c4)c(Oc4cnc5[nH]ccc5c4)c3)CC2)=C(c2ccc(Cl)cc2)C1 [Venetoclax] (first compound max 10 µM, 7x7, partner max 1 µM) | -0.0429 | 0.048 | -0.0557 | 0.0096 | 0.0415 | -0.0361 | -0.062 | -0.0139 | -0.0454 | 0.0104 | -0.116 | -0.018 | 0.0125 | 0.0175 | -0.0558 | 0.0389 | 0.0202 | -0.0263 | 0.0231 | -0.045 |
| COc1nnc2ccc(N3CCC(c4ccc(OCCN5CCN(C)C(=O)[C@H]5C)cc4)CC3)nn12 [AZD5153] + CCN(CCO)CCCOc1ccc2c(Nc3cc(CC(=O)Nc4cccc(F)c4)[nH]n3)ncnc2c1 [AZD2811] (first compound max 1 µM, 7x7, partner max 1 µM) | -0.0551 | -0.0244 | -0.0227 | 0.0167 | 0.0988 | -0.0802 | -0.0067 | -0.0281 | -0.0399 | -0.0579 | -0.0763 | -0.0669 | -0.0908 | 0.0025 | -0.0124 | 0.0389 | -0.102 | -0.0409 | -0.0578 | -0.129 |
| COc1nnc2ccc(N3CCC(c4ccc(OCCN5CCN(C)C(=O)[C@H]5C)cc4)CC3)nn12 [AZD5153] + Cc1c2c(nn1C)CSCc1cc(n(C)n1)CSc1cc(c3ccccc3c1)OCCCc1c(C(=O)O)n(C)c3c-2c(Cl)ccc13 [AZD5991] (first compound max 1 µM, 7x7, partner max 1 µM) | -0.0296 | 0.0087 | 0.015 | -0.0329 | -0.0515 | 0.0112 | -0.0238 | -0.0227 | -0.0318 | -0.0656 | -0.106 | 0.0112 | -0.108 | 0.0034 | -0.0158 | 0.0049 | -0.0549 | -0.1 | -0.0313 | 0.0028 |
| CC1(C)CCC(CN2CCN(c3ccc(C(=O)NS(=O)(=O)c4ccc(NCC5CCOCC5)c([N+](=O)[O-])c4)c(Oc4cnc5[nH]ccc5c4)c3)CC2)=C(c2ccc(Cl)cc2)C1 [Venetoclax] + CN(C)CCCOc1ccc(-c2ccc3ncc4c(c3c2)n(C2CCOCC2)c(=O)n4C)cn1 [AZD0156] (first compound max 1 µM, 7x7, partner max 1 µM) | -0.0064 | -0.0375 | 0.0103 | -0.0153 | -0.0103 | -0.0305 | -0.0215 | -0.0086 | 0.0031 | 0 | 0.0264 | -0.0651 | -0.0231 | -0.0098 | -0.0248 | 0.0314 | -0.0273 | 0.0156 | -0.004 | 0.0048 |
| Cn1cnc2c(F)c(Nc3ccc(Br)cc3Cl)c(C(=O)NOCCO)cc21 [Selumetinib] + C=CCn1c(=O)c2cnc(Nc3ccc(N4CCN(C)CC4)cc3)nc2n1-c1cccc(C(C)(C)O)n1 [AZD1775] (first compound max 10 µM, partner max 1 µM) | 0.0308 | -0.0624 | -0.0443 | -0.0083 | 0.0039 | -0.0355 | -0.0882 | -0.0432 | -0.0417 | -0.0433 | 0.0598 | -0.0468 | -0.0631 | -0.0491 | -0.0514 | 0.0111 | -0.0339 | 0.0035 | -0.02 | -0.063 |
| C=CCn1c(=O)c2cnc(Nc3ccc(N4CCN(C)CC4)cc3)nc2n1-c1cccc(C(C)(C)O)n1 [AZD1775] + C[C@@H]1COCCN1C2=NC(=NC(=C2)C3(CC3)[S@](=N)(=O)C)C4=C5C=CNC5=NC=C4 [AZD6738] (first compound max 1 µM, partner max 10 µM) | 0.0462 | -0.0377 | -0.0206 | 0.0534 | 0.0737 | 0.0201 | -0.0278 | -0.0089 | -0.0287 | -0.0346 | 0.0235 | -0.0902 | 0.0366 | 0.0329 | -0.0843 | 0.0218 | -0.0242 | 0.0645 | -0.0268 | -0.0334 |
| NC1(C(=O)N[C@@H](CCO)c2ccc(Cl)cc2)CCN(c2ncnc3[nH]ccc23)CC1 [Capivasertib] + COc1nnc2ccc(N3CCC(c4ccc(OCCN5CCN(C)C(=O)[C@H]5C)cc4)CC3)nn12 [AZD5153] (first compound max 10 µM, 7x7, partner max 1 µM) | 0.0335 | 0 | -0.0072 | 0.0199 | 0.0097 | -0.0394 | 0.0197 | -0.0029 | 0.0367 | -0.0019 | 0.0076 | 0.0253 | -0.0489 | 0.0517 | 0.0361 | -0.008 | -0.0246 | 0.0231 | 0.0174 | 0.0513 |

Source: the supplement of paper PMC11061612
